Experimental data: patent US10010545B1, “Antibiotic compositions and methods of use” (University of South Florida, priority 2013, dated 2018)
In brackets after ≈: the same amount, converted by molar mass.

Columns and labels:
MRSA = experiment: Growth inhibition against MRSA; format: cell-based; details: at 1 μg/ml against MRSA
Description: (§1) Six analogs (FIG. 2) of the ciprofloxacin-N thiolated β-lactam were successfully synthesized. All these compounds were then tested against ESKAPE pathogens for bioactivity. The ESKAPE pathogens are a collection of six deadly superbugs, Enterococcus faecium, Staphylococcus aureus, Klebsiella pneumoniae, Acinetobacter baumannii, Pseudomonas aeruginosa, and Enterobacter species. […] G denotes growth and X denotes no growth in the tables.
Synthesis of dual drugs for the antibacterial purposes is a huge arena of research and for the first time this was done with the N-thiolated β-lactams. Though both N-acyl ciprofloxacins and N-thiolated β-lactams have been independently studied, the attempt to combine them via a cleavable covalent bond was never done. This study has elaborated on the synthesis of six such analogs.

Staphylococcus aureus = experiment: Growth testing against ESKAPE pathogens: Staphylococcus aureus; format: cell-based; set-up: key to Activity against Staphylococcus aureus (growth observed): Growth; X: No Growth
Description: as §1

Pseudomonas aeruginosa = experiment: Growth testing against ESKAPE pathogens: Pseudomonas aeruginosa; format: cell-based; set-up: key: Growth; X: No Growth
Description: as §1

Klebesiella pneumonia = experiment: Growth testing against ESKAPE pathogens: Klebesiella pneumonia; format: cell-based, Klebsiella pneumoniae; set-up: key: Growth; X: No Growth
Description: as §1

Enterococcus faecium = experiment: Growth testing against ESKAPE pathogens: Enterococcus faecium; format: cell-based; set-up: key: Growth; X: No Growth
Description: as §1

Acinetobacter baumannii = experiment: Growth testing against ESKAPE pathogens: Acinetobacter baumannii; format: cell-based; set-up: key: Growth; X: No Growth
Description: as §1

SMILES: CCC(C)SN1C(=O)C(OC(=O)c2cn(C3CC3)c3cc(N4CCN(C(C)=O)CC4)c(F)cc3c2=O)C1c1ccccc1Cl (stereo not drawn) [Lactam 125]
- growth inhibition (MRSA): complete growth inhibition
- Activity against Staphylococcus aureus (growth observed) (Staphylococcus aureus; 1 μg/ml): X
- Activity against Staphylococcus aureus (growth observed) (Staphylococcus aureus; 2 μg/ml): X
- Activity against Staphylococcus aureus (growth observed) (Staphylococcus aureus; 3 μg/ml): X
- Activity against Staphylococcus aureus (growth observed) (Staphylococcus aureus; 4 μg/ml): X
- Activity against Staphylococcus aureus (growth observed) (Staphylococcus aureus; 5 μg/ml): X
- Activity against Staphylococcus aureus (growth observed) (Staphylococcus aureus; 6 μg/ml): X
- Activity against Staphylococcus aureus (growth observed) (Staphylococcus aureus; 7 μg/ml): X
- Activity against Staphylococcus aureus (growth observed) (Staphylococcus aureus; 8 μg/ml): X
- Activity against Staphylococcus aureus (growth observed) (Staphylococcus aureus; 9 μg/ml): X
- Activity against Staphylococcus aureus (growth observed) (Staphylococcus aureus; 10 μg/ml): X
- Activity against Staphylococcus aureus (growth observed) (Staphylococcus aureus; 25 μg/ml): X
- MIC (Staphylococcus aureus; against S. aureus): 1 µg/mL (≈ 1.56 µM)
- Activity against Pseudomonas aeruginosa (growth observed) (Pseudomonas aeruginosa; 1 μg/ml): G
- Activity against Pseudomonas aeruginosa (growth observed) (Pseudomonas aeruginosa; 2 μg/ml): G
- Activity against Pseudomonas aeruginosa (growth observed) (Pseudomonas aeruginosa; 3 μg/ml): G
- Activity against Pseudomonas aeruginosa (growth observed) (Pseudomonas aeruginosa; 4 μg/ml): G
- Activity against Pseudomonas aeruginosa (growth observed) (Pseudomonas aeruginosa; 5 μg/ml): G
- Activity against Pseudomonas aeruginosa (growth observed) (Pseudomonas aeruginosa; 6 μg/ml): G
- Activity against Pseudomonas aeruginosa (growth observed) (Pseudomonas aeruginosa; 7 μg/ml): G
- Activity against Pseudomonas aeruginosa (growth observed) (Pseudomonas aeruginosa; 8 μg/ml): G
- Activity against Pseudomonas aeruginosa (growth observed) (Pseudomonas aeruginosa; 9 μg/ml): G
- Activity against Pseudomonas aeruginosa (growth observed) (Pseudomonas aeruginosa; 10 μg/ml): G
- Activity against Pseudomonas aeruginosa (growth observed) (Pseudomonas aeruginosa; 25 μg/ml): G
- Activity against Klebesiella pneumonia (growth observed) (Klebesiella pneumonia; 1 μg/ml): G
- Activity against Klebesiella pneumonia (growth observed) (Klebesiella pneumonia; 2 μg/ml): G
- Activity against Klebesiella pneumonia (growth observed) (Klebesiella pneumonia; 3 μg/ml): G
- Activity against Klebesiella pneumonia (growth observed) (Klebesiella pneumonia; 4 μg/ml): G
- Activity against Klebesiella pneumonia (growth observed) (Klebesiella pneumonia; 5 μg/ml): G
- Activity against Klebesiella pneumonia (growth observed) (Klebesiella pneumonia; 6 μg/ml): G
- Activity against Klebesiella pneumonia (growth observed) (Klebesiella pneumonia; 7 μg/ml): G
- Activity against Klebesiella pneumonia (growth observed) (Klebesiella pneumonia; 8 μg/ml): G
- Activity against Klebesiella pneumonia (growth observed) (Klebesiella pneumonia; 9 μg/ml): G
- Activity against Klebesiella pneumonia (growth observed) (Klebesiella pneumonia; 10 μg/ml): G
- Activity against Klebesiella pneumonia (growth observed) (Klebesiella pneumonia; 25 μg/ml): G
- Activity against Enterococcus faecium (growth observed) (Enterococcus faecium; 1 μg/ml): G
- Activity against Enterococcus faecium (growth observed) (Enterococcus faecium; 2 μg/ml): G
- Activity against Enterococcus faecium (growth observed) (Enterococcus faecium; 3 μg/ml): G
- Activity against Enterococcus faecium (growth observed) (Enterococcus faecium; 4 μg/ml): G
- Activity against Enterococcus faecium (growth observed) (Enterococcus faecium; 5 μg/ml): G
- Activity against Enterococcus faecium (growth observed) (Enterococcus faecium; 6 μg/ml): G
- Activity against Enterococcus faecium (growth observed) (Enterococcus faecium; 7 μg/ml): G
- Activity against Enterococcus faecium (growth observed) (Enterococcus faecium; 8 μg/ml): G
- Activity against Enterococcus faecium (growth observed) (Enterococcus faecium; 9 μg/ml): G
- Activity against Enterococcus faecium (growth observed) (Enterococcus faecium; 10 μg/ml): G
- Activity against Enterococcus faecium (growth observed) (Enterococcus faecium; 25 μg/ml): G
- Activity against Acinetobacter baumannii (growth observed) (Acinetobacter baumannii; 1 μg/ml): G
- Activity against Acinetobacter baumannii (growth observed) (Acinetobacter baumannii; 2 μg/ml): G
- Activity against Acinetobacter baumannii (growth observed) (Acinetobacter baumannii; 3 μg/ml): G
- Activity against Acinetobacter baumannii (growth observed) (Acinetobacter baumannii; 4 μg/ml): G
- Activity against Acinetobacter baumannii (growth observed) (Acinetobacter baumannii; 5 μg/ml): G
- Activity against Acinetobacter baumannii (growth observed) (Acinetobacter baumannii; 6 μg/ml): G
- Activity against Acinetobacter baumannii (growth observed) (Acinetobacter baumannii; 7 μg/ml): G
- Activity against Acinetobacter baumannii (growth observed) (Acinetobacter baumannii; 8 μg/ml): G
- Activity against Acinetobacter baumannii (growth observed) (Acinetobacter baumannii; 9 μg/ml): G
- Activity against Acinetobacter baumannii (growth observed) (Acinetobacter baumannii; 10 μg/ml): G
- Activity against Acinetobacter baumannii (growth observed) (Acinetobacter baumannii; 25 μg/ml): G
